These results are taken from patent US20220218835A1, “COMBINATION THERAPY” (priority 2019, published 2022).

In the experiment the test system is MM1S tumours. Description: MM1S xenograft mouse model. It counts as in vivo, CB17 SCID mice.

Procedure: A CB17 SCID mice (n=7 each group) with palpable MM1S tumour implants were randomized and treated with control vehicle, a single dose of M2 (0.4 mg/kg), six doses of btz (0.4 mg/kg), or combination of M2 and btz (M2+btz) for 2 weeks. […] D Tumour tissue sections from each group were immunohistochemically analyzed for Ki-67 (original magnification, ×400). […] Tumours were removed at the same treatment day from representative mice.
CB-17 SCID-mice were subcutaneously inoculated with 5.0×106 MM.1S cells in 100 μl of serum-free RPMI 1640 medium. When tumours were measurable approximately 3 weeks after MM-cell injection, mice (8 mice/group) were randomized and treated with vehicle alone, M2, btz, or M2 with btz. Tumour size was measured every third day in 2 dimensions using calipers, and tumour volume was calculated using the following formula: V=0.5a×b2, where “a” and “b” are the long and short diameter of the tumour, respectively. Animals were sacrificed when their tumours reached 2 cm^3.
Following 3d-treatment, tumour from each group was harvested and cell lysates were made for immunoblotting. […] Immunohistochemical images were taken on Zeiss Inverted Fluorescence Microscope for Ki67. […]
In vivo efficacy of sub-optimal doses M2 with btz was next evaluated in the MM1S xenograft mouse model. […]

Turning to `CC(C)C[C@H](NC(=O)[C@H](Cc1ccccc1)NC(=O)c1cnccn1)B(O)O` [btz, Bortezomib], the MM1S tumour growth result (24d after treatment, single dose M2, 6 doses btz (0.4 mg/kg)) was “significantly delays”. Besides, the median overall survival (Kaplan-Meier, follow-up 177 d) came out at 35 days.
